Experiment [1] concerns primary hippocampal neurons. Nature of the experiment: Spontaneous and miniature EPSCs/IPSCs in primary hippocampal neurons, voltage-clamp. The conditions noted are these: for effect on amplitude of miniature EPSCs and IPSCs: NH29 at 25 μM, data not shown. The class given is cell-based, rat. On the procedure:
For hippocampal neuronal cultures, Sprague-Dawley rat embryos (E18) were removed by caesarian section and their hippocampi were dissected out. The tissue was digested with papain for 20 min, triturated to a single-cell suspension, and plated at a density of 40,000 cells per ml on a substrate of bovine collagen type IV and 100 μg/ml poly-L-lysine in 13 mm diameter glass coverslips of a 24-multiwell plate. The culture medium consisted of Modified Eagle's Medium containing 5% horse serum (Biological Industries, Beit HaEmek, Israel), B-27 neuronal supplement (Invitrogen, Carlsbad, Calif.), 100 U/ml penicillin, 100 μg/ml streptomycin, and 2 mM glutamine. D-glucose was supplemented to a final concentration of 6 g/l. Cytosine-1-D-arabinofuranoside (5 μM) was added after 5 days to arrest glial cell proliferation.
For electrophysiological recordings hippocampal neurons were used at 10-14 days in culture. All cultures were maintained at 37° C. in humidified air containing 5% CO2.
Spontaneous excitatory postsynaptic currents (EPSCs) were recorded in the voltage-clamp configuration of the whole-cell patch-clamp technique at a holding potential of −70 mV as previously described; the extracellular solution contained (in mM) 160 NaCl, 2.5 KCl, 10 HEPES, 10 glucose, 2 CaCl2; pH 7.3 (325 mOsm), to which 30 μM picrotoxin and 10 μM bicuculline methyl iodide were added. The intracellular solution consisted (in mM) of 130 K-gluconate, 10 KCl, 1.1 EGTA, 10 HEPES, 1 MgCl2, 2 Na2ATP, 0.1 CaCl2 and 5 QX314Br to block Na^+ currents; pH 7.2 (315 mOsm).
Spontaneous inhibitory postsynaptic currents (IPSCs) were recorded at a holding potential of −70 mV; the extracellular solution contained (in mM) 160 NaCl, 2.5 KCl, 10 HEPES, 10 glucose, 2 CaCl2; pH 7.3 (325 mOsm), to which 10 μM NBQX and 10 μM AP-5 were added. The intracellular solution consisted (in mM) of 144 CsCl, 10 HEPES, 1.1 EGTA, 0.1 CaCl2, 5 MgCl2, 2 Na2ATP, 5 QX314 Br; pH 7.3 (315 mOsm).
Data analysis was performed using the Clampfit program (pClamp 9.2, Molecular Devices), Microsoft Excel (Microsoft) and Prism 4.0 (GraphPad). Chord conductance (G) was calculated by using the following equation: G=I/(V−Vrev) where I corresponds to the current amplitude measured at the end of the pulse and Vrev, the calculated reversal potential. G was estimated at various test voltages V and then, normalized to a maximal conductance value, Gmax. Activation curves were fitted by one Boltzmann distribution: G/Gmax=1/{1+exp[(V50−V)/s]} where V50 is the voltage at which the current is half-activated and s is the slope factor. All data were expressed as mean±SEM. Statistically significant differences were assessed by Student's t-test. Analysis of sEPSCs and sIPSCs was done using the Clampfit program (pClamp 9.2, Molecular Devices) and included evaluation of the individual events as well as the average event amplitude and the integral of the event (total charge transfer).
Because of their slow activation and their lack of inactivation, M-channels could modulate neuronal activity during repetitive spike discharge and tune neurotransmitter release. FIG. 6 illustrates the effect of NH25 on synaptic transmission and transmitter release. Spontaneous excitatory and inhibitory post-synaptic currents (sEPSCs and sIPSCs) were recorded from dense cultures of primary hippocampal neurons, using the voltage-clamp configuration of the whole-cell patch-clamp technique.

Experiment [2] relates to DRG neurons. Nature of the experiment: Current-clamp recordings in cultured DRG neurons. The experiment is classed as cell-based, rat. Conditions: for rheobase current to generate a single spike: 2 ms injection. On the procedure: For dorsal root ganglion (DRG) neuronal cultures, ganglia were dissected from 2-5 day-old Sprague-Dawley rats killed by decapitation. DRGs were placed in Hank's balanced saline solution (HBSS) and prepared by enzymatic dissociation. Briefly, after 30 minutes incubation in 5 mg/ml dispase, 2 mg/ml collagenase type 1A and 0.1 mg/ml DNase (Invitrogen/Gibco, Carlsbad, Calif.) in Ca^2+ and Mg^2+-free HBSS, the ganglia were mechanically triturated with a fire-polished glass Pasteur pipette. The ganglia were then centrifuged for 5 minutes at 80×g and resuspended in DMEM supplemented with 2 mM L-glutamine, 16.5 mM NaHCO3, 6 g/l glucose, 5 ml penicillin/streptomycin and 10% fetal calf serum.
For electrophysiological recording, dissociated neurons were plated on 13 mm glass coverslips, previously coated with poly-D-lysine (1 mg/ml) and laminin (10 μg/ml) and used at 1-2 days in culture.
For current-clamp recordings in primary cultured neurons, the patch pipettes were filled with (in mM): 135 KCl, 1 K2ATP, 1 MgATP, 2 EGTA, 1.1 CaCl2, 5 glucose, 10 HEPES, adjusted with KOH at pH 7.4 (315 mOsm). The external solution contained (in mM): 150 NaCl, 2.5 KCl, 2 CaCl2, 2 MgCl2, 15 glucose, 10 HEPES, adjusted with NaOH at pH 7.4 (325 mOsm). Recordings were sampled at 5 kHz and filtered at 2 KHz via a 4-pole Bessel low pass filter. A liquid junction potential of about −15.6 mV was measured between the intracellular and saline solutions and corrected on-line.
For evoking spike discharges, 75-200 pA square depolarizing current pulses were injected into neurons for 400 ms. For rheobase current measurements, 100-1100 pA square depolarizing current pulses were injected into neurons for 2 ms.

SMILES strings stand for the structures. Bounds are passed on as bounds.

On to `O=C(Cc1cc([N+](=O)[O-])cc([N+](=O)[O-])c1Nc1c(Cl)cc([N+](=O)[O-])cc1Cl)NCCO` [NH29], for which, in experiment [1], the “effect on amplitude of miniature EPSCs and IPSCs” value is “did not affect”. In addition, in experiment [2] (25 μM NH29, control 178±36 pA, n=8), the “rheobase current to generate a single spike” value was 300±55 pA. Further, the resting membrane potential in experiment [2] (25 μM NH29, control −56.0±2.2 mV, n=7) is −65.0±3.4 mV. For the same molecule, the “hyperpolarization of resting membrane potential” value in experiment [2] (25 μM NH29, n=7) is recorded as −9.0±1.9 mV.

For the molecule `O=C(Cc1cc([N+](=O)[O-])ccc1Nc1c(Cl)cccc1Cl)OCCO` [NH25], in experiment [1] (25 μM), the “effect on amplitude and kinetics of sIPSCs” value is recorded as “did not significantly affect”; the “reduction of charge transfer within the bursts of sEPSCs” value is “about 50%”; the “reduction of total charge transfer of sEPSCs” value was “about 50%”. Also, the “effect on burst duration of sEPSCs” value in experiment [1] (25 μM, holding potential −70 mV) was “markedly reduced”. The “effect on amplitude of miniature EPSCs and IPSCs” value in experiment [1] was “did not affect”. Further, the inhibition at 25 µM in experiment [1] (Rattus norvegicus, Hippocampal neuron, 25 μM, holding potential −70 mV, read-out: inhibition of sIPSCs frequency of spontaneous occurrence) is over 98%. In addition, in experiment [2] (25 μM NH25, control 400±41 pA, n=12), the “rheobase current to generate a single spike” value is given as 577±38 pA. Also, the “number of evoked action potentials” value in experiment [2] (25 μM NH25, 75-200 pA for 400 ms, control 10.4±0.8, n=8) was found to be 0.8±0.3. Also, the resting membrane potential in experiment [2] (25 μM NH25, control −60.6±0.3 mV, n=13) is −69.0±0.3 mV. In experiment [2] (25 μM NH25, n=13), the “hyperpolarization of resting membrane potential” value is −8.3±0.2 mV.

Source of the values: patent US9403756B2, “N-phenyl anthranilic acid derivatives and uses thereof” (Ramot at Tel-Aviv University Ltd., priority 2007, dated 2016).
